Source: article PMC10218704, “A Novel Blood–Brain Barrier-Penetrating and Vascular-Targeting Chimeric Peptide Inhibits Glioma Angiogenesis” (International Journal of Molecular Sciences, 2023)
Ends that are not written are not given here.

Experiments:
HUVECs [1] = assay: Hoechst 33,258 staining (apoptosis); type: cell-based, human; conditions: 320 μmol/L; 24 h
Experimental: HUVECs were seeded into 6-well culture plates (3 × 10^5 cells/well). […] After discarding the supernatant and washing with cold PBS, the cells were fixed in 4% paraformaldehyde and stained with Hoechst 33,258 for 10 min. Then, the cells were washed with cold PBS and observed using an inverted fluorescence microscope.

HUVECs [2] = assay: Annexin V-FITC/PI staining, flow cytometry (apoptosis); type: cell-based, human; conditions: 320 μmol/L, 24 h; for induction of apoptosis: Hoechst and Annexin V-FITC/PI staining; for total apoptotic rate (Q1-UR and Q1-LR): mean ± SD, n = 3, control (7.17 ± 1.42)%
Experimental: HUVECs were seeded into 6-well culture plates (3 × 10^5 cells/well). […] After discarding the supernatant and washing with cold PBS, the cells were fixed in 4% paraformaldehyde and stained with Hoechst 33,258 for 10 min. Then, the cells were washed with cold PBS and observed using an inverted fluorescence microscope. HUVECs were treated with different peptides (the methods were the same as the Hoechst staining). After 24 h, cells were collected by trypsin digestion and washed with PBS. Annexin V-FITC/PI staining was conducted according to the manufacturer’s instructions for the Apoptosis Detection Kit. Briefly, 195 μL of Annexin V-FITC/PI dilution buffer was added to resuspend the cells. Then, 5 μL of Annexin V-FITC and 10 μL of PI staining solutions were added and gently mixed with the cells. After incubation at room temperature in the dark for 10 min, the apoptotic cells were detected by flow cytometry.

VEGFR-2 [3] = type: binding, human; conditions: peptide 256 and 1000 nmol/L; VEGF-A165 0.5-8 nmol/L; CM5 chip; HBS-EP
Experimental: To determine the effect of TAT-AT7 in competition with VEGF-A165 binding to VEGFR-2 or NRP-1, the SPR assay was conducted. The whole operation was conducted on a Biacore S200 instrument. The recombinant VEGFR-2 or NRP-1 proteins were firstly immobilized on a CM5 chip by an amine-coupling reaction. VEGF-A165 ligands with gradient concentrations in the absence or presence of different peptides were then flowed over the CM5 chip. The binding of VEGF-A165 ligands to the immobilized recombinant VEGFR-2 or NRP-1 proteins led to an increase of the refractive index on the surface of the chip, which could be converted into the fluctuation of electrical signals in the response (RU). As the concentration of VEGF-A165 was higher, the response value was also higher. However, with the addition of different peptides, the response value decreased to different degrees (Figure 3A and Figure 4A).
(TAT), ATWLPPR (AT7), and […] (TAT-AT7) were synthesized from China Peptides Co., Ltd. (Shanghai, China). The Hoechst 33,258 staining kit, Annexin V-FITC/PI apoptosis detection kit, and BCA protein assay kit were obtained from Beyotime Biotechnology (Nantong, China). The total protein extraction kit was from BestBio (Shanghai, China). The CM5 sensor chip was obtained from GE Healthcare Life Sciences (Uppsala, Sweden). Purified recombinant human VEGFR-2 and NRP-1 receptor proteins were purchased from R&D Systems (Minneapolis, MN, USA). Recombinant human endothelial growth factor-A165 (VEGF-A165) was obtained from PeproTech (Rocky Hill, NJ, USA). Anti-ERK1/2, anti-p-ERK1/2, anti-p-VEGFR-2, anti-AKT, anti-p-AKT, anti-p-SRC, anti-p-FAK, anti-p38 MAPK, anti-p-p38 MAPK, anti-p-PLC-γ, and anti-GAPDH antibodies were purchased from Cell Signaling Technology (Danvers, MA, USA). Anti-VEGFR-2, anti-FAK, and anti-SRC were purchased from Proteintech Group, Inc (Wuhan, China). F-12K medium, heparin, and endothelial cell growth supplement (ECGS) were from Macgene (Beijing, China). DMEM medium and fetal bovine serum (FBS) were obtained from Gibco®, Life Technologies (Carlsbad, CA, USA). […]

VEGFR-2 [4] = assay: Western blot, phosphorylation of VEGFR-2; type: cell-based, human; conditions: 320 μmol/L; 90 min; VEGF-A165 30 ng/mL; HUVECs; n = 3
Experimental: For Western blotting analysis, HUVECs were seeded into 6-well culture plates at 3 × 10^5 cells/well and incubated overnight. […] Two control groups (F-12K medium in the absence or presence of VEGF-A165) were set. The cells were washed with cold PBS and lysed with lysis buffer (protease and phosphatase inhibitors) on the ice for 30 min, and then centrifuged at 4 °C for 15 min at 14,000 r/min. The supernatant was collected, and its total protein concentration was determined by the BCA protein assay kit. Equal amounts of proteins were separated by 10% SDS-PAGE gels and transferred to polyvinylidene difluoride (PVDF) membranes. After blocking with 5% non-fat milk for 1 h, the membranes were incubated with specific antibodies at 4 °C overnight. Then, the membranes were washed with TBST (Tris-Buffered Saline with 0.1% Tween 20) and incubated with horseradish peroxidase (HRP)-conjugated secondary antibody for 1 h at room temperature. The proteins on the membranes were visualized with enhanced chemiluminescence agents.

[5] = system: intracranial U87-mCherry-luc glioma; assay: In vivo anti-glioma study (bioluminescence); set-up: species or system nude mice; conditions: 20 mg/kg/day i.v. (tail vein), 11 days; days 4, 7, 11, 14; n = 5
Experimental: The orthotopic U87-mCherry-luc glioma-bearing nude mice were randomly assigned to 6 groups (n = 5) according to the bioluminescence intensity of glioma measured on day 4. […] The bioluminescence intensity was measured on days 4, 7, 11, and 14, respectively. Nude mice were weighed daily. On day 15, the mice were sacrificed, and the glioma-bearing brains were harvested. The brain tissues were fixed with 4.0% paraformaldehyde, embedded in paraffin, and cut into slices. The TUNEL staining and CD31 immunohistochemical staining were conducted according to standard histological procedures.

Compound | number of apoptotic cells (Hoechst 33,258) (HUVECs [1]) | induction of apoptosis (HUVECs [2]) | total apoptotic rate (Q1-UR and Q1-LR) (HUVECs [2]) [%] | effect on VEGF-A165 and VEGFR-2 binding (RU) (VEGFR-2 [3]) | phosphorylation level of VEGFR-2 (VEGFR-2 [4]) | glioma growth (bioluminescence) [5]
CC(C)C[C@H](NC(=O)[C@H](Cc1c[nH]c2ccccc12)NC(=O)[C@@H](NC(=O)[C@H](C)NC(=O)[C@H](CS)NC(=O)[C@H](CCCNC(=N)N)NC(=O)[C@H](CCCNC(=N)N)NC(=O)[C@H](CCCNC(=N)N)NC(=O)[C@H](CCC(N)=O)NC(=O)[C@H](CCCNC(=N)N)NC(=O)[C@H](CCCNC(=N)N)NC(=O)[C@H](CCCCN)NC(=O)[C@H](CCCCN)NC(=O)[C@@H](N)CCCNC(=N)N)[C@@H](C)O)C(=O)N1CCC[C@H]1C(=O)N1CCC[C@H]1C(=O)N[C@@H](CCCNC(=N)N)C(=O)O [TAT-AT7] | significantly increased compared to the control, AT7, TAT, and TAT+AT7 groups | strongly induced HUVECs’ apoptosis | 29.56 ± 3.07 | significantly reduced the RU value | reduce the phosphorylation level of VEGFR-2 | significantly suppressed glioma growth on days 11 and 14
ATWLPPR [AT7, ATWLPPR] | – | no obvious effect of promoting apoptosis | 7.80 ± 1.50 | less inhibitory effects on VEGF-A165 and VEGFR-2 binding than TAT-AT7 | – | no significant difference compared to the control group
